# In patent US20200071351A1, “TACCALONOLIDE MICROTUBULE STABILIZERS” (THE BOARD OF REGENTS OF THE UNIVERSITY OF TEXAS SYSTEM, priority 2016, published 2020):
# Where two headings read alike, the source gives them in different places.
# How the values were obtained:
# [1] = tested on: purified porcine brain tubulin; experiment: Tubulin polymerization followed turbidimetrically; assay type: biochemical; conditions: 10 μM compound, 2 mg/ml tubulin, 10% glycerol, 1 mM GTP, 37° C., OD340
# Procedure: The ability of these new potent taccalonolides to interact directly with tubulin was assessed by incubating purified porcine brain tubulin at a concentration of 2 mg/ml in the presence of 10% glycerol and 1 mM GTP, which allows for a baseline level of tubulin polymerization that can be followed turbidimetrically (FIG. 5).
# Tubulin polymerization was monitored by turbidity measurement at OD340.
# [2] = tested on: PC-3 prostate cancer cell line; experiment: Inhibition of cellular proliferation, SRB assay, PC-3 cells; assay type: cell-based; conditions: average of 3-4 independent experiments
# Procedure: (§1) The HeLa cervical cancer cell line, the SK-OV-3 ovarian cancer cell line and the PC-3 prostate cancer cell line were obtained from American Type Tissue Culture Collection (Manassas, Va.) and grown in Basal Media Eagle (BME) or RPMI 1640 medium (Invitrogen; Carlsbad, Calif.) supplemented with 10% fetal bovine serum (Hyclone; Logan, Utah) and 50 μg/ml gentamicin sulfate (Invitrogen). The P-glycoprotein expressing SK-OV-3/MDR-1-6/6 cell line and the βIII-tubulin expressing WTβIII cell line have been described previously (Risinger et al., 2008).
# (§2) The antiproliferative and cytotoxic effects of the taccalonolides were evaluated using the SRB assay (Skehan et al., 1990, Boyd and Paull, 1995) as previously described (Tinley et al., 2003). The concentration of drug that causes 50% inhibition of cellular proliferation (IC50) was calculated from the linear portion of the log dose response curve. The ability of the compounds to initiate cytotoxicity was also determined. […] The determination of IC50 values was performed on taccalonolide material after NMR analysis and subsequent lyophilization. Ethanol or DMSO was used as the vehicle for all cellular studies.
# (§3) The ability of taccalonolides AF and AJ to inhibit the proliferation of both drug sensitive cancer cells, including ovarian cancer cells (SK-OV-3), cervical cancer cells (HeLa) and prostate cancer cells (PC-3) and drug resistant cells, including the P-glycoprotein expressing SK-OV-3 line (SK-OV-3/MDR-1-6/6) and the βIII-tubulin expressing HeLa cell line (WTβIII) was determined.
# (§4) Referring to Table 3, the effect of the taccalonolides in drug resistant and sensitive cells is shown. IC50 values for inhibition of cellular proliferation for taccalonolides AF and AJ were determined in drug sensitive and drug resistant cell lines. The HeLa cell pair evaluated the effect of βIII tubulin expression on cell sensitivity and the ability of compounds to overcome drug resistance mediated by βIII tubulin expression. […] IC50 values were calculated from an average of 3-4 independent experiments, each performed in triplicate.
# [3] = tested on: SK-OV-3/MDR-1-6/6 cell line; experiment: Inhibition of cellular proliferation, SRB assay, P-glycoprotein expressing SK-OV-3/MDR-1-6/6 cells; assay type: cell-based; conditions: for relative resistance (Rr): IC50 SK-OV-3/MDR-1-6/6 divided by IC50 SK-OV-3; for IC50: SK-OV-3/MDR-1-6/6, average of 3-4 independent experiments
# Procedure: as §1, §2, §3
# (§5) Referring to Table 3, the effect of the taccalonolides in drug resistant and sensitive cells is shown. IC50 values for inhibition of cellular proliferation for taccalonolides AF and AJ were determined in drug sensitive and drug resistant cell lines. The HeLa cell pair evaluated the effect of βIII tubulin expression on cell sensitivity and the ability of compounds to overcome drug resistance mediated by βIII tubulin expression. The SK-OV-3 cell line pair was used to evaluate the effects of the expression of P-glycoprotein (Pgp) on cell sensitivity and the ability of compounds to overcome Pgp-mediated drug resistence. The effects of the taccalonolides on the drug senstive prostate cancer cell line PC-3 are also presented. IC50 values were calculated from an average of 3-4 independent experiments, each performed in triplicate.
# [4] = tested on: human mammary epithelial cells; experiment: Cytotoxicity to normal cells; assay type: cell-based; conditions: concentrations 5 to 100-fold the IC50 values in the HeLa cancer cell line
# HeLa cells [5] = experiment: Inhibition of cellular proliferation, SRB assay, HeLa cells; assay type: cell-based; conditions: for increase in potency as compared to the parent taccalonolide on C22-C23 epoxidation: HeLa IC50 ratio, parent/epoxide
# Procedure: The ability of the compounds to initiate cytotoxicity was also determined. […] The determination of IC50 values was performed on taccalonolide material after NMR analysis and subsequent lyophilization. Ethanol or DMSO was used as the vehicle for all cellular studies.
# The antiproliferative potencies of the taccalonolides were evaluated in HeLa cells using the SRB assay.
# [6] = tested on: βIII-tubulin expressing HeLa cell line (WTβIII); experiment: Inhibition of cellular proliferation, SRB assay, βIII-tubulin expressing WTβIII cell line; assay type: cell-based; conditions: for relative resistance (Rr): IC50 WTβIII divided by IC50 HeLa; for IC50: WTβIII, average of 3-4 independent experiments
# Procedure: as §1, §2, §3, §5
# HeLa cells [7] = experiment: Mitotic spindle structures, indirect immunofluorescence; assay type: cell-based; conditions: 18 h, 125 nM AF, 200 nM AI, 35 nM AJ
# Procedure: Cellular microtubules in interphase and mitotic HeLa cells were visualized using indirect immunofluorescence techniques as previously described (Tinley et al., 2003). […] Representative images of interphase and mitotic cells were acquired using a Nikon Eclipse 80i fluorescence microscope and compiled using NIS Elements AR 3.0 software.
# The effects of the taccalonolides on mitotic spindle structures were evaluated to test whether they caused mitotic spindle defects leading to cell cycle arrest. β-tubulin and DNA were visualized in HeLa cells by indirect immunofluorescence and DAPI staining, respectively. […] These mitotic cells contained multiple abnormal mitotic spindles, which is another common effect of microtubule stabilizing agents (FIGS. 4A-D).
# The microtubule structures in mitotic cells were visualized by indirect immunofluorescence using a β-tubulin antibody.
# [8] = tested on: SK-OV-3 ovarian cancer cell line; experiment: Inhibition of cellular proliferation, SRB assay, SK-OV-3 cells; assay type: cell-based; conditions: average of 3-4 independent experiments
# Procedure: as §1, §2, §3, §4
# [9] = tested on: MDA-MB-231 human breast tumors; experiment: Antitumor activity in MDA-MB-231 breast tumor xenograft; assay type: in vivo, Nude mice; conditions: 2.5 mg/kg on days 0 and 4 or 2.0 mg/kg on days 0, 3, and 7
# Procedure: The ability of taccalonolide AF to inhibit the growth of the aggressive human breast tumor MDA-MB-231 in a murine host was determined. Taccalonolide AF was administered at a dose of 2.5 mg/kg on days 0 and 4 or 2.0 mg/kg on days 0, 3, and 7.
# Referring to FIG. 6, Nude mice bearing bilateral MDA-MB-231 human breast tumors were treated with 2.0 mg/kg of AF on days 0, 3 and 7, 2.5 mg/kg AF on days 0 and 4, or 10 mg/kg PTX on days 0, 2, 4 and 7 as a positive control. Tumor volume was measured using calipers and mass calculated with the formula: Tumor mass (mg)=0.5×[…]. Median tumor mass with standard error of the mean (n=10) are graphically represented. *p<0.05, **p<0.01.
# MDA-MB-231-BR-Luc2 cells = experiment: Growth of intracranially injected breast cancer cells in the brain, luciferase imaging; assay type: in vivo, female athymic nude mice; conditions: for brain tumor photon counts, day 0: day 0, 10 second exposure; for brain tumor photon counts, day 0 / brain tumor photon counts, day 7: one mouse each, AF 2.2 mg/kg ip, paclitaxel 20 mg/kg ip on days 0 and 4; for brain tumor photon counts, day 7: day 7, 10 second exposure
# Procedure: Referring to FIG. 15, A brain-seeking clone of the MDA-MB-231 triple negative breast cancer cell line stably transfected with luciferase was injected intracranially (1×10^6 MDA-MB-231-BR-Luc2 cells in 5 μL PBS) into female athymic nude mice. […] On day 7, mice were again imaged as described above (FIGS. 15C, D). The brain tumor in the mouse treated with taccalonolide AF measured 2.2×10^3 photon counts with an exposure time of 10 seconds on day 0 but was undetectable with the same 10 second exposure time on day 7. A longer exposure time of 60 seconds gave a photon count of 2.4×10^3.
# HeLa cells [10] = experiment: Cell cycle distribution by flow cytometry; conditions: 18 h, 125 nM AF, 200 nM AI, 35 nM AJ
# [11] = HeLa cells, SRB assay, read-out: IC50
# [12] = HeLa, average of 3-4 independent experiments, read-out: IC50 for inhibition of cellular proliferation, HeLa
structure (smiles),measurement,setting,value
CC(=O)O[C@H]1[C@H]2[C@H]([C@@H]3[C@@H](O)[C@@H]4[C@H]([C@H](C)[C@@H]5O[C@@]56OC(=O)[C@@](C)(O)[C@]46C)[C@@]3(C)[C@H]1OC(C)=O)[C@@H](O)C(=O)[C@H]1C[C@@H]3O[C@@H]3[C@H](OC(C)=O)[C@]21C [Taccalonolide AJ],rate and extent of tubulin polymerization,[1],dramatically increased
same,IC50,[2],25.1 ± 4 nM
same,relative resistance (Rr),[3],(7.8)
same,IC50,[3],126 ± 12.8 nM
same,cytotoxicity of normal cells,[4],No cytotoxicity
same,increase in potency as compared to the parent taccalonolide on C22-C23 epoxidation,HeLa cells [5],743 fold
same,IC50,HeLa cells [5]; [11],4.3 nM
same,IC50,HeLa cells [5]; [12],6.6 ± 0.3 nM
same,relative resistance (Rr),[6],(1.7)
same,IC50,[6],11.1 ± 0.6 nM
same,effect on mitotic spindle structures,HeLa cells [7],mitotic arrest of cells with multiple abnormal mitotic spindles
same,IC50,[8],16.3 ± 0.8 nM
CC(=O)O[C@@H]1[C@H]2[C@H]3[C@H]([C@H](OC(C)=O)[C@H](OC(C)=O)[C@]2(C)[C@H]2[C@H](C)[C@H]4O[C@]45OC(=O)[C@@](C)(O)[C@]5(C)[C@@H]12)[C@]1(C)[C@H](C[C@@H]2O[C@@H]2[C@@H]1OC(C)=O)C(=O)[C@@H]3O [Taccalonolide AF],rate and extent of tubulin polymerization,[1],dramatically increased
same,IC50,[2],128 ± 16 nM
same,relative resistance (Rr),[3],(4.6)
same,IC50,[3],366 ± 30.6 nM
same,cytotoxicity of normal cells,[4],No cytotoxicity
same,increase in potency as compared to the parent taccalonolide on C22-C23 epoxidation,HeLa cells [5],234 fold
same,IC50,HeLa cells [5]; [11],23 nM
same,IC50,HeLa cells [5]; [12],23.6 ± 2.1 nM
same,relative resistance (Rr),[6],(1.3)
same,IC50,[6],30.6 ± 3.3 nM
same,antitumor activity compared to vehicle treated controls,[9],sufficient to observe antitumor activity
same,antitumor activity compared to positive control 10 mg/kg paclitaxel,"[9]; paclitaxel days 0, 2, 4 and 7",equivalent or greater than the positive control
same,effect on mitotic spindle structures,HeLa cells [7],mitotic arrest of cells with multiple abnormal mitotic spindles
same,"brain tumor photon counts, day 0",MDA-MB-231-BR-Luc2 cells,2.2×10^3 photon counts
same,"brain tumor photon counts, day 7",MDA-MB-231-BR-Luc2 cells,undetectable
same,"brain tumor photon count, day 7, longer exposure","MDA-MB-231-BR-Luc2 cells; day 7, 60 seconds exposure, AF 2.2 mg/kg ip on days 0 and 4",2.4×10^3 photon count
same,IC50,[8],79.4 ± 3.5 nM
CC(=O)O[C@H]1C[C@H]2[C@H]([C@@H]3[C@@H](O)[C@@H]4[C@H]([C@H](C)C=C5OC(=O)[C@@](C)(O)[C@@]54C)[C@]31C)[C@@H](O)C(=O)[C@H]1C[C@@H]3O[C@@H]3[C@H](OC(=O)CC(C)C)[C@@]12C [Taccalonolide AI],IC50,"HeLa cells [5]; HeLa cells, SRB assay, parent taccalonolide, read-out: IC50",47 nM
same,effect on mitotic spindle structures,HeLa cells [7],mitotic arrest of cells with multiple abnormal mitotic spindles
"CC(=O)O[C@H]1C(=O)[C@@]2(C)[C@H]([C@H](OC(=O)c3ccccc3)[C@]3(O)C[C@H](OC(=O)[C@H](O)[C@@H](NC(=O)c4ccccc4)c4ccccc4)C(C)=C1C3(C)C)[C@]1(OC(C)=O)CO[C@@H]1C[C@@H]2O [Paclitaxel, paclitaxel, reference compound]",IC50,[2]; Homo sapiens,3.7 ± 0.2 nM
same,IC50,[3]; Homo sapiens,785 ± 88 nM
same,effect on mitotic progression / cell cycle distribution,HeLa cells [10],mitotic arrest
same,IC50,"[6]; Homo sapiens, HeLa",17.8 ± 1.2 nM
same,"brain tumor photon counts, day 0",MDA-MB-231-BR-Luc2 cells,1.8×10^4 photon counts
same,"brain tumor photon counts, day 7",MDA-MB-231-BR-Luc2 cells,9.0×10^4 photon counts
same,IC50,[8]; Homo sapiens,3.8 ± 0.2 nM
"CC(=O)O[C@@H]1[C@H]2[C@@H]3[C@@H](O)C(=O)[C@H]4C[C@@H]5O[C@@H]5[C@H](OC(=O)C(C)C)[C@]4(C)[C@H]3C[C@H](OC(C)=O)[C@]2(C)[C@@H]2[C@@H]1[C@]1(C)C(=C[C@H]2C)OC(=O)[C@@]1(C)O [Taccalonolide S, reference compound]",IC50,"HeLa cells [5]; Homo sapiens, HeLa, HeLa cells, SRB assay, parent taccalonolide, read-out: IC50",9 nM
